Entries after “also recorded” stand apart in the source; their conditions may differ. Ends that are not written are not given here. * marks the point of attachment. Biotin = O=C1N[C@H]2[C@H](CS[C@H]2CCCCC(=O)*)N1
Columns and labels:
[1] = tested on: WHHL rabbit aortic tissue (intima); assay: Resected WHHL rabbit aortic tissue peptide binding assay; details: for staining on WHHL tissue, original versus randomized sequence: one experiment on a WHHL rabbit, FIGS. 14 and 15; for positive binding / staining on WHHL tissue samples: five to seven tissue samples per peptide; for staining on WHHL aortic tissue: overall statement across experiments; for staining of corresponding WHHL tissue samples: sections FIG. 10(c) (peptide 4) and FIG. 11(a) (peptide 3); for staining of individual WHHL tissue sections: sections FIG. 10(d) (peptide 4) and FIG. 11(b) (peptide 3)
Procedure: (§1) Experiments were performed to determine if the synthesized peptides could bind to the intima of the WHHL (diseased) rabbits but not to the NZW (control) rabbits. The following procedure is shown schematically in FIG. 2. The animals were anesthetized, injected with 0.7-1.0 mL heparin, and perfused with 200-300 mL Hanks buffered salt solution containing 1% BSA. A segment of the aorta comprising the aortic arch to the bifurcation of the aorta in the lower abdomen was removed and placed in a buffer solution of Hanks w/1% BSA and 1% protease inhibitor cocktail (Sigma, P8340). The aorta segments were opened longitudinally and sliced into individual pieces approximately 1-2 mm^2 each. These pieces were then placed into tubes containing individual peptides at a concentration of 5 μg/mL in the same buffer solution described above.
(§2) The tissue sections were incubated with individual peptides for 45-60 minutes at room temperature. Samples were washed 3× with PBS followed by incubation with SA-HRP or anti-FLAG-HRP in the same buffer for 45-60 minutes at room temperature. After another 3× washing, the samples were incubated with DAB for 30 minutes in the same buffer. After a final round of washing, tissue samples were imaged with a dissecting microscope and analyzed for the presence of brown staining on the endothelial surface. […] Some tissue sections received no peptide incubation; rather they were exposed only to SA-HRP or anti-FLAG-HRP as a control.

[2] = tested on: frozen WHHL aorta tissue sections; assay: Direct staining on frozen WHHL rabbit tissue sections; assay type: binding; details: for staining of frozen WHHL aorta tissue sections: peptide 1 μg/mL, 4 μm sections, FIG. 22
Procedure: Some of the resected WHHL and NZW aortic arch tissues were frozen and sectioned into 4 μm slices. Binding assays were performed on these frozen sections in a similar manner to that described herein. Sections were thawed and incubated with blocking buffer (Hanks w/1% BSA) for 30 minutes. Individual peptides were added to the slides in blocking buffer at a concentration of 1 μg/mL. After 45 minutes of incubation, the slides were washed and either SA-HRP or anti-FLAG-HRP, depending on the modification of the peptides, was added at the recommended concentration and allowed to incubate for 1 hour. The slides were washed again, and the DAB substrate was added and incubated for 30 minutes while looking for brown color development. After washing away the DAB, the tissue samples were fixed with 10% buffered formalin for 10 minutes followed by counterstaining with hemotoxylin. The slides were then mounted with permount and glass coverslips for imaging. The standard SA-HRP and anti-FLAG-HRP controls were performed for these experiments as well.

[3] = tested on: atherosclerotic lesion endothelium of ApoE knockout mice; details: mouse; cited from earlier work
[4] = tested on: NZW rabbit aortic tissue (intima); assay: Resected NZW rabbit aortic tissue peptide binding assay; details: for staining / binding on NZW tissue: peptide 9 at 1× concentration, FIG. 12
Procedure: as §1, §2

[5] = tested on: aorta of ApoE knockout mice; assay: ApoE knockout mice in vivo peptide binding assay; parameters: species or system mouse; details: 1 hour circulation, SA-HRP or anti-FLAG-HRP with DAB
Procedure: In the peptide binding assays, individual peptides are injected into an anesthetized mouse and allowed to circulate in vivo for 1 hour. Note that this is different from the WHHL/NZW binding assays where the aorta is first resected and then incubated with peptide. The animal is then fixed via cardiac perfusion with 4% formaldehyde, and the aorta is removed to test for binding of the peptide. The detection assay is the same assay described herein: either SA-HRP or anti-FLAG-HRP is added to the solution containing the resected tissue, followed by the addition of the DAB substrate, after which the tissue samples are sectioned and imaged.

[6] = tested on: WHHL rabbit aortic tissue (intima); assay: Resected WHHL rabbit aortic tissue peptide binding assay
[7] = tested on: human atherosclerotic lesions; details: cited from earlier work
[8] = tested on: lipid-loaded HAECs; assay: Lipid-loaded HAEC peptide binding assay; assay type: cell-based, human; details: peptide 1, 5 or 100 μg/mL; SA-HRP or anti-FLAG-HRP with DAB
Procedure: Human aortic endothelial cells (HAECs) were loaded with acetylated low-density lipoprotein as described herein. Peptide binding assays were performed 24 hours after the third lipid-loading of the cells. Control cells grown in the standard media without added lipid were cultured for the same amount of time as the lipid-loaded HAECs.
The general procedure for the peptide binding assays was conducted as follows (see FIG. 1). Variations on this method will be discussed as well. Both the lipid- and non-lipid-loaded cells were imaged prior to the assays to verify morphological differences between the two conditions of the cells. The media was aspirated and cells were washed 3× with cold wash buffer (PBS w/Ca^2+, […] with 2% FBS), followed by a 5 minute incubation on ice to minimize internalization of peptides. Cold blocking buffer (PBS w/1% BSA) was added to the cells for 15 minutes to prevent nonspecific binding. Peptides were then added to the cells in cold blocking buffer at 1, 5, or 100 μg/mL and incubated for 1 hour on ice. Following incubation, cells were washed 3×, and either streptavidin horseradish peroxidase (SA-HRP) or anti-FLAG horseradish peroxidase (anti-FLAG-HRP) was added to the cells in cold blocking buffer at the recommended concentrations provided by the manufacturers. […]

[9] = 10× concentration (˜100 μg/mL) versus 1×, FIG. 13

Biotin-RNPGYTYHIALG [Peptide 4R]
staining on WHHL tissue, original versus randomized sequence [1]: much less staining compared to the original sequences

ILTHEHTLPKQ-FLAG (ILTHEHTLPKQ-{FLAG}) [Peptide 9R]
staining of frozen WHHL aorta tissue sections [2]: no staining; also recorded: no binding

KSLSRHDHIHHH [Peptide 16]
positive binding / staining on WHHL tissue samples ([1]; Exp217 (FIG. 19)): stained

CNHRYMQMC [Peptide 11, reference compound]
positive binding / staining on WHHL tissue samples ([1]; Exp201 (FIG. 18)): showed staining on one tissue sample
binding to atherosclerotic lesion endothelium of ApoE knockout mice in vivo [3]: shown to bind

TQTPIKHHLLKE [Peptide 9]
binding to regions of plaque, dependence on dose ([1]; WHHL aortic tissue): dose-dependent manner
location of staining in sectioned WHHL aorta ([1]; histological sections, Hoechst stain, 400×, FIG. 16): localized to the intimal layer, with no infiltration into the plaque region; also recorded: localized to the intimal layer of the aorta
staining over plaque versus non-plaque regions of WHHL aorta ([1]; histological sections, FIG. 17): present on intima covering regions of plaque but not over non-plaque regions; also recorded: seen over plaque-rich regions
staining on WHHL tissue, original versus randomized sequence [1]: stronger than the staining seen from peptide 9R
staining on WHHL aortic tissue [1]: consistently shows staining
staining on NZW tissue at 10-fold increased concentration [4, 9]: remains the same as the staining seen with the 1× concentration
staining / binding on NZW tissue [4]: some slight staining; also recorded: light, distinct staining pattern; also recorded: slight background staining
binding to frozen tissue samples ([2]; frozen WHHL and NZW tissue): showed binding
staining of frozen WHHL aorta tissue sections [2]: strong brown staining on the surface; also recorded: stains the intimal surface
binding to aorta after in vivo circulation of peptide [5]: did not yield positive results
staining on WHHL aortic tissue relative to anti-FLAG-HRP control sections ([6]; 1× concentration (˜10 μg/mL), FIGS. 8 and 9, two WHHL rabbits): more total staining, and the staining is very distinct
staining on WHHL tissue at 10-fold increased concentration [6, 9]: increases dramatically

NLTSLTQGSAML [Peptide 39]
positive binding / staining on WHHL tissue samples ([1]; Exp223 (FIG. 21)): some staining

CAPGPSKSC (cysteine pairing not given here; also: N-terminal biotin or C-terminal FLAG, which one not given here) [Peptide 12]
positive binding / staining on WHHL tissue samples ([1]; Exp217 (FIG. 19)): stained
binding to atherosclerotic lesion endothelium of ApoE knockout mice in vivo [3]: bound
binding to human atherosclerotic lesions ex vivo [7]: bound

TAPHHSTPANVP [Peptide 17]
binding to lipid-loaded HAECs (brown staining) [8]: negative result for binding

CNKNSIPHC [Peptide 20]
positive binding / staining on WHHL tissue samples ([1]; Exp201 (FIG. 18)): showed staining on one tissue sample

CDSIKWPNC [Peptide 23]
binding to lipid-loaded HAECs (brown staining) [8]: negative result for binding

SSSKMQAAHQLP [Peptide 24]
positive binding / staining on WHHL tissue samples ([1]; Exp201 (FIG. 18)): showed staining on one tissue sample
positive binding / staining on WHHL tissue samples ([1]; Exp219 (FIG. 20)): some staining

CKQSFEKSC [Peptide 1]
positive binding / staining on WHHL tissue samples ([1]; Exp201 (FIG. 18)): showed staining on one tissue sample

TDTTMGQVHRHP [Peptide 37]
positive binding / staining on WHHL tissue samples ([1]; Exp223 (FIG. 21)): some staining

SSLPAPPWPLRG [Peptide 6]
positive binding / staining on WHHL tissue samples ([1]; Exp201 (FIG. 18)): showed staining on one tissue sample
positive binding / staining on WHHL tissue samples ([1]; Exp217 (FIG. 19)): slight staining

CKSDANSHC [Peptide 2]
positive binding / staining on WHHL tissue samples ([1]; Exp217 (FIG. 19)): stained

APHYLKTAPPPN [Peptide 28]
positive binding / staining on WHHL tissue samples ([1]; Exp219 (FIG. 20)): some staining

Biotin-PPEEWSPVTHLL [Peptide 3R]
staining on WHHL tissue, original versus randomized sequence [1]: much less staining compared to the original sequences

YITPYAHLRGGN [Peptide 4]
staining on WHHL aortic tissue [1]: above-average reproducible staining
staining of corresponding WHHL tissue samples [1]: very little, if any, brown staining
staining of individual WHHL tissue sections [1]: good staining
staining / binding on NZW tissue [4]: no binding

CHPASSPQC [Peptide 34]
positive binding / staining on WHHL tissue samples ([1]; Exp223 (FIG. 21)): some staining

TSPQTKDC [Peptide 7]
positive binding / staining on WHHL tissue samples ([1]; Exp201 (FIG. 18)): showed staining on one tissue sample
positive binding / staining on WHHL tissue samples ([1]; Exp217 (FIG. 19)): slight staining
binding to aorta after in vivo circulation of peptide [5]: did not yield positive results

CKQSPPSMC [Peptide 14]
positive binding / staining on WHHL tissue samples ([1]; Exp217 (FIG. 19)): stained

NADNQMTWRHVL [Peptide 38]
positive binding / staining on WHHL tissue samples ([1]; Exp223 (FIG. 21)): some staining

CVMPGLKNC [Peptide 10]
positive binding / staining on WHHL tissue samples ([1]; Exp201 (FIG. 18)): showed staining on one tissue sample

TPLEVHPESLPW [Peptide 3]
staining on WHHL aortic tissue [1]: above-average reproducible staining
staining of corresponding WHHL tissue samples [1]: very little, if any, brown staining
staining of individual WHHL tissue sections [1]: best staining
staining / binding on NZW tissue [4]: no binding

SIGYPLP [Peptide 13, reference compound]
positive binding / staining on WHHL tissue samples ([1]; Exp217 (FIG. 19)): stained
